Values quoted from earlier work as cited in patent publication US7026311B2, “Dibenzodiazepine derivatives, their preparation and use” (Abbott GmbH & Co., KG, priority 2002, dated 2006).

Conditions: S. Cuzzocrea et al., Br. J. Pharmacol. 1997

NC(=O)c1cccc(N)c1 [Example 3-aminobenzamide, 3-aminobenzamide]
effects in a model of circulatory shock: protective effects
